pIC50: −log10 of the molar value.
Key:
Assay type in all cases: in vitro ADME
[1] = Permeability in Caco-2 cell line; conditions: human
Experimental: (§1) The permeability of Compound 1 was evaluated using both Caco-2 and MadinDarby canine kidney (MDCK) wild-type cell lines. Cells were exposed to drug in buffer on the apical side (measuring permeability in the A-to-B direction) or basolateral side (measuring permeability in the B-to-A direction) and incubated at 37° C. for one hour. Permeability was high in the A-to-B direction in both the MDCK and Caco-2 cell lines (33 and 18×10^−6 cm/sec, respectively).

[2] = system: Caco-2; assay: Permeability in Caco-2 cell line; conditions: Caco-2, 5 μM, A > B
Experimental: as §1

[3] = target: T1, CYP3A4 (Homo sapiens, UniProt P08684); assay: Inhibition of CYP Enzymes in Human Liver Microsomes; design: evaluated in human liver microsomes using the IC50 shift assay; from tissue; host or cells: human liver microsomes
Experimental: Inhibition assays were conducted with selective CYP probes for each CYP enzyme at specific concentrations of substrate (close to its dissociation constant (Km) value). Compound 1 was a moderate inhibitor of CYP 1A2, 2B6 and 2C8; […]

[4] = target: T1, CYP3A4; assay: Time-dependent inhibition of CYP3A4, IC50 shift assay; design: evaluated in human liver microsomes using the IC50 shift assay; from tissue; host or cells: human liver microsomes; conditions: CYP3A4, preincubation 0 and 30 minutes with/without NADPH, human liver microsomes
Experimental: Time-dependent inhibition of CYP3A4 by Compound 1 also was evaluated in human liver microsomes using the IC50 shift assay. In the study, Compound 1 at 0.1 to 50 μM was preincubated with human liver microsomes in the presence and absence of NADPH for 0 and 30 minutes. Incubations were then diluted 10-fold with buffer and the remaining CYP3A4 (testosterone-6-beta-hydroxylase) activity was measured over a 10 minute period. There was no significant change (IC50 shift=1) in the IC50 of Compound 1 in the presence or absence of NADPH.

T1 sequence (P08684 whole entry): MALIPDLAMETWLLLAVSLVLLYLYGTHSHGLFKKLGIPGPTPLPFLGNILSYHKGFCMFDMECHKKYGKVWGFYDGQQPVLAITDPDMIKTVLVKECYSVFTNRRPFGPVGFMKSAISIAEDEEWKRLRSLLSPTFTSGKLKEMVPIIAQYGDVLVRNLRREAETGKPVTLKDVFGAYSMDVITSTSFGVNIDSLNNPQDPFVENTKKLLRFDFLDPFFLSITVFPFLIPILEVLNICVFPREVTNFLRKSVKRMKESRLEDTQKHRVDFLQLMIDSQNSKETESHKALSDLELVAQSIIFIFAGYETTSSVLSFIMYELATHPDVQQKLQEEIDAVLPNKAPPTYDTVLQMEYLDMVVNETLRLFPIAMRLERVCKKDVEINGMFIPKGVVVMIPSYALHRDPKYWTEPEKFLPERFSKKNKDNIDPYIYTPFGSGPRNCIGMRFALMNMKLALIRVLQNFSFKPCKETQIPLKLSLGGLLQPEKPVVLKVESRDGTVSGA

**Q.** With `Cc1cc(-c2cncc([C@@H](O)C(F)(F)F)c2)nc2c1C(=O)N(c1cnn(CC(F)F)c1)C2(C)C` [Compound 1, (R)-6-(1-(2,2-difluoroethyl)-1H-pyrazol-4-yl)-4,7,7-trimethyl-2-(5-(2,2,2-trifluoro-1-hydroxyethyl)pyridin-3-yl)-6,7-dihydro-5H-pyrrolo[3,4-b]pyridin-5-one] as the compound, how does the Papp A→B at 1 h, 5 μM ([1]; Caco-2, Caco-2, 5 μM, A > B) read?
**A.** 18 ×10⁻⁶ cm/s

**Q.** And the recovery at 1 h, 5 μM ([1]; Caco-2, Caco-2, 5 μM, A > B)?
**A.** 87%

**Q.** What about the recovery at 1 h, 5 μM ([1]; Caco-2, Caco-2, 5 μM, B > A) of the same compound?
**A.** 96%

**Q.** What about the efflux ratio at 1 h, 5 μM ([1]; Caco-2, 5 μM) of the same compound?
**A.** 1.9

**Q.** What about the Papp B→A at 1 h, 5 μM ([1]; Caco-2, 5 μM, B > A) of the same compound?
**A.** 60.7 ×10⁻⁶ cm/s

**Q.** What about the “Avg. Papp” value [2] of the same compound?
**A.** 32.6 ×10⁻⁶ cm/s

**Q.** And the pIC50 ([3]; CYP3A4, 2.5 μM Midazolam)?
**A.** 4.72

**Q.** And the pIC50 ([3]; CYP3A4, 50 μM Testosterone)?
**A.** < 4.12

**Q.** And the IC50 shift [4]?
**A.** 1
